Measured values reported in US20170122958A1, “Enzymes Functional Probes” (University of Dundee, priority 2013, published 2017).

Legend:
Brd2(1) [1] = molecular target: T1, Brd2(1) (Homo sapiens, UniProt P25440); assay: DSF thermal shift; format: binding; settings: wild type
T1 construct: Plasmids of the eight single BET bromodomain constructs Brd2(1), Brd2(2), Brd3(1), Brd3(2); His6 (N); made in house; host or cells: E. coli BL21(DE3)

Brd2(1)*(Val103-Ala) = molecular target: T2, Brd2(1)*(Val103-Ala) (Homo sapiens, UniProt P25440, V103A); assay: DSF thermal shift; format: binding; settings: mutant
T2 construct: Plasmids of the eight single BET bromodomain constructs Brd2(1), Brd2(2), Brd3(1), Brd3(2); His6 (N); made in house; host or cells: E. coli BL21(DE3)

Brd2(2) [2] = molecular target: T3, Brd2(2) (Homo sapiens, UniProt P25440); assay: DSF thermal shift; format: binding; settings: wild type
T3 construct: Plasmids of the eight single BET bromodomain constructs Brd2(1), Brd2(2), Brd3(1), Brd3(2); His6 (N); made in house; host or cells: E. coli BL21(DE3)

Brd2(2)*(Val376Ala) = molecular target: T4, Brd2(2)*(Val376Ala) (Homo sapiens, UniProt P25440, V376A); assay: DSF thermal shift; format: binding; settings: mutant
T4 construct: Plasmids of the eight single BET bromodomain constructs Brd2(1), Brd2(2), Brd3(1), Brd3(2); His6 (N); made in house; host or cells: E. coli BL21(DE3)

Brd2(1)*(Trp097His) = molecular target: T5, Brd2(1)*(Trp097His) (Homo sapiens, UniProt P25440, W97H); assay: DSF thermal shift; format: binding; settings: mutant
T5 construct: Plasmids of the eight single BET bromodomain constructs Brd2(1), Brd2(2), Brd3(1), Brd3(2); His6 (N); made in house; host or cells: E. coli BL21(DE3)

Brd2(1)*(Trp097Phe) = molecular target: T6, Brd2(1)*(Trp097Phe) (Homo sapiens, UniProt P25440, W97F); assay: DSF thermal shift; format: binding; settings: mutant
T6 construct: Plasmids of the eight single BET bromodomain constructs Brd2(1), Brd2(2), Brd3(1), Brd3(2); His6 (N); made in house; host or cells: E. coli BL21(DE3)

Brd2(2)*(Trp370His) = molecular target: T7, Brd2(2)*(Trp370His) (Homo sapiens, UniProt P25440, W370H); assay: DSF thermal shift; format: binding; settings: mutant
T7 construct: Plasmids of the eight single BET bromodomain constructs Brd2(1), Brd2(2), Brd3(1), Brd3(2); His6 (N); made in house; host or cells: E. coli BL21(DE3)

Brd2(2)*(Trp370Phe) [3] = molecular target: T8, Brd2(2)*(Trp370Phe) (Homo sapiens, UniProt P25440, W370F); assay: DSF thermal shift; format: binding; settings: mutant
T8 construct: Plasmids of the eight single BET bromodomain constructs Brd2(1), Brd2(2), Brd3(1), Brd3(2); His6 (N); made in house; host or cells: E. coli BL21(DE3)

Brd2(2) [4] = molecular target: T3, Brd2(2); assay: ITC reverse titration of protein into compound; format: binding; settings: for Kd: Kd Brd2(2)
Method: (§1) ITC experiments were carried out on a ITC200 instrument from MicroCal™ Experiments were conducted at 3 different temperatures 15° C., 25° C. and 30° C., while stirring at 1000 rpm. Buffers of proteins, peptide and compounds were matched to 20 mM HEPES pH 7.5 at 25° C. and 100 mM NaCl. Frozen protein was buffer exchanged as described for the DSF experiments. Each titration comprised 1 initial injection of 0.4 μl lasting 0.8 s, followed by 19 injections of 2 μl lasting 4 s each at 2 min intervals. The initial injection was discarded during data analysis. Standard and reverse titrations were conducted depending on the binding partners.
(§2) Reverse titrations were conducted to test the binding of the known ligands and the novel chemical probes to the wild types and the mutants. Experiments were carried out either at 25° C. or 30° C. […] In cases where the compound was solubilized in dimethyl sulfoxide, DMSO concentration was adjusted to 1% both in the syringe and in the cell.
(§3) All the data was fitted to a single binding site model using the Microcal LLC ITC200 Origin software provided by the manufacturer to yield enthalpies of binding (ΔH) and binding constants (Kas). Further thermodynamic parameters were calculated from these values (changes in entropy ΔS, changes in free energy AG and dissociation constants (Kds)).

Brd2(2)*(Trp370Phe) [5] = molecular target: T8, Brd2(2)*(Trp370Phe); assay: ITC reverse titration of protein into compound; format: binding
Method: For this reason, these molecules were not selected for further experimentation. […] Results can be seen in FIG. 7.
as §1
Reverse titrations were conducted to test the binding of the known ligands and the novel chemical probes to the wild types and the mutants. Experiments were carried out either at 25° C. or 30° C. […]
as §3

Brd4(1) = molecular target: T9, Brd4(1) (Homo sapiens, UniProt O60885); assay: DSF thermal shift; format: binding; settings: wild type
T9 construct: Plasmids of the eight single BET bromodomain constructs Brd2(1), Brd2(2), Brd3(1), Brd3(2), Brd4(1), Brd4(2), Brdt(1) and Brdt(2); His6 (N); made in house; host or cells: E. coli BL21(DE3)

Brd4(2) = molecular target: T10, Brd4(2) (Homo sapiens, UniProt O60885); assay: DSF thermal shift; format: binding; settings: wild type
T10 construct: Plasmids of the eight single BET bromodomain constructs Brd2(1), Brd2(2), Brd3(1), Brd3(2), Brd4(1), Brd4(2), Brdt(1) and Brdt(2); His6 (N); made in house; host or cells: E. coli BL21(DE3)

brd4(1)L094A = molecular target: T11, brd4(1)L094A (Homo sapiens, UniProt O60885, L94A); assay: DSF thermal shift; format: binding; settings: mutant
T11 construct: Plasmids of the eight single BET bromodomain constructs Brd2(1), Brd2(2), Brd3(1), Brd3(2), Brd4(1), Brd4(2), Brdt(1) and Brdt(2); His6 (N); made in house; host or cells: E. coli BL21(DE3)

brd4(2)L387A = molecular target: T12, brd4(2)L387A (Homo sapiens, UniProt O60885, L387A); assay: DSF thermal shift; format: binding; settings: mutant
T12 construct: Plasmids of the eight single BET bromodomain constructs Brd2(1), Brd2(2), Brd3(1), Brd3(2), Brd4(1), Brd4(2), Brdt(1) and Brdt(2); His6 (N); made in house; host or cells: E. coli BL21(DE3)

Brd2(1) [6] = molecular target: T1, Brd2(1); assay: ITC reverse titration of protein into compound; format: binding
Method: as §1, §2, §3

Solubility observations = settings: observation in words
Brd2(1)*(Leu110-Ala) [7] = molecular target: T13, Brd2(1)*(Leu110-Ala) (Homo sapiens, UniProt P25440, L110A); assay: DSF thermal shift; format: binding; set-up: Plasmids of the eight single BET bromodomain constructs Brd2(1), Brd2(2), Brd3(1), Brd3(2); His6 (N); made in house; host or cells: E. coli BL21(DE3); settings: mutant
Method: (§4) DSF assays were performed on a LightCycler®480 from Roche or a Mx3005P Real Time PCR machine from Stratagene. […] SYPRO®Orange from Invitrogen Molecular Probes® was used as a reporter dye to monitor the denaturing process of the proteins. Samples were assayed on a 96-well plate with final protein concentrations of 2 μM for the LightCycler®480 and 6 μM for Mx3005P. Compounds were added at a final concentration of 10 μM for the LightCycler®480 and 30 μM for Mx3005P, while the tetra acetylated histone peptide was added to a final concentration of 100 μM and 300 μM respectively. […] The temperature was raised with a step of 0.6° C. per minute from 37° C. to 95° C. with the LightCycler®480 collecting 39 measurements per ° C., and 1° C. per minute from 25° C. to 95° C. with Mx3005P, collecting fluorescence readings at the end of each interval. Each sample was run in triplicates.
(§5) Collected data was analysed by IGOR Pro 6, a scientific software tool from Wave Metrics, Inc. Analysis was done following the recommendations of Niesen et al.. Fluorescence intensity was plotted as a function of temperature, generating a sigmoidal curve described by a two-state transition from folded to unfolded protein. Curves were fitted by the following sigmoidal equation: […]
(§6) A1 and A2 are the values of minimum and maximum intensities, respectively, x0 is the inflection point and dx is the rate. Fitted curves were differentiated in IGOR Pro 6 and the maximum of the first derivative was identified using the same program. These values correspond to the inflection points of the transition curves and thus to the melting temperatures of the proteins (Tm).

Brd2(2)*(Leu383-Ala) [8] = molecular target: T14, Brd2(2)*(Leu383-Ala) (Homo sapiens, UniProt P25440, L383A); assay: DSF thermal shift; format: binding; set-up: Plasmids of the eight single BET bromodomain constructs Brd2(1), Brd2(2), Brd3(1), Brd3(2); His6 (N); made in house; host or cells: E. coli BL21(DE3); settings: mutant
Method: as §4, §5, §6

Brd2(1)*(Leu110-Ala) [9] = molecular target: T13, Brd2(1)*(Leu110-Ala); assay: ITC reverse titration of protein into compound; format: binding; set-up: Plasmids of the eight single BET bromodomain constructs Brd2(1), Brd2(2), Brd3(1), Brd3(2), Brd4(1), Brd4(2), Brdt(1) and Brdt(2); His6 (N); made in house; host or cells: E. coli BL21(DE3)
Method: as §1, §2, §3

Brd2(2)*(Leu383-Ala) [10] = molecular target: T14, Brd2(2)*(Leu383-Ala); assay: ITC reverse titration of protein into compound; format: binding; set-up: Plasmids of the eight single BET bromodomain constructs Brd2(1), Brd2(2), Brd3(1), Brd3(2), Brd4(1), Brd4(2), Brdt(1) and Brdt(2); His6 (N); made in house; host or cells: E. coli BL21(DE3); settings: ITC 30° C., 1% DMSO
Method: as §1, §2, §3

T14 sequence (P25440 344-453 L383A limits assumed): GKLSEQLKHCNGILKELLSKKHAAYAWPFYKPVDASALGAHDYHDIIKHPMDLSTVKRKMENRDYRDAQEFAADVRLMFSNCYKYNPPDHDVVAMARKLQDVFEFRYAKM
T13 sequence (P25440 74-180 L110A limits assumed): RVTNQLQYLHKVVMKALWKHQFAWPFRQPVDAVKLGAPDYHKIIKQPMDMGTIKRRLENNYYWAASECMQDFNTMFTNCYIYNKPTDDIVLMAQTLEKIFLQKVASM
T3 sequence (P25440 344-453 limits assumed): as the sequence (P25440 344-453 L383A limits assumed) above, with A40L counted along it
T1 sequence (P25440 74-180 limits assumed): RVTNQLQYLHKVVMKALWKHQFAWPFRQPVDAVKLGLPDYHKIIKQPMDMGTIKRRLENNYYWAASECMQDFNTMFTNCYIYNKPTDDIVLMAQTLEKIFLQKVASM
T8 sequence (P25440 344-453 W370F limits assumed): as the sequence (P25440 344-453 L383A limits assumed) above, with W27F, A40L counted along it
T2 sequence (P25440 74-180 V103A limits assumed): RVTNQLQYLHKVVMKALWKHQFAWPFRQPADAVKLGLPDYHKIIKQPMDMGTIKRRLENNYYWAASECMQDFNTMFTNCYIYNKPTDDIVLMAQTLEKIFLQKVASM
T6 sequence (P25440 74-180 W97F limits assumed): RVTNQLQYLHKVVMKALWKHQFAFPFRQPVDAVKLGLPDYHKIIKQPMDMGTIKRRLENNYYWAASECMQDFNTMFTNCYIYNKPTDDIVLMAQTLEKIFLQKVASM
T5 sequence (P25440 74-180 W97H limits assumed): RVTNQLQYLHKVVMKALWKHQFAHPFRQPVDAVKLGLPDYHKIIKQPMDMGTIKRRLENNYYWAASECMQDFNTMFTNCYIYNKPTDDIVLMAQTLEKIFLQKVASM
T7 sequence (P25440 344-453 W370H limits assumed): as the sequence (P25440 344-453 L383A limits assumed) above, with W27H, A40L counted along it
T4 sequence (P25440 344-453 V376A limits assumed): as the sequence (P25440 344-453 L383A limits assumed) above, with V33A, A40L counted along it

## CCNC(=O)CC1N=C(c2ccc(Cl)cc2)c2cc(OC)cc(C)c2-n2c(C)nnc21 (centres unmarked) [Compound 19]
Brd2(1) [1]
  ΔTm Brd2(1): 0.5 ± 0.2 K
Brd2(1)*(Val103-Ala)
  ΔTm Brd2(1)*(Val103-Ala): 0.4 ± 0.3 K
Brd2(2) [2]
  ΔTm Brd2(2): 3.8 ± 0.1 K
Brd2(2)*(Val376Ala)
  ΔTm Brd(2)*(Val376-Ala): 1.3 ± 0.1 K

## COC(=O)CC1N=C(c2cccc3[nH]ccc23)c2cc(OC)ccc2-n2c(C)nnc21 (centres unmarked) [Compound 18]
Brd2(1) [1]
  ΔTm Brd2(1): 6.8 ± 0.6 K
Brd2(1)*(Trp097His)
  ΔTm Brd2(1)*(Tryp097-His): 0.6 ± 0.3 K
Brd2(1)*(Trp097Phe)
  ΔTm Brd2(1)*(Tryp097-Phe): 1.9 ± 0.5 K
Brd2(2) [2]
  ΔTm Brd2(2): 7.7 ± 0.2 K
Brd2(2)*(Trp370His)
  ΔTm Brd2(2)*(Tryp370-His): 2.7 ± 0.4 K
Brd2(2)*(Trp370Phe) [3]
  ΔTm Brd2(2)*(Tryp370-Phe): 5.1 ± 0.1 K
Brd2(2) [4]; ITC 25° C.
  Kd: ~90 nM
Brd2(2)*(Trp370Phe) [5]
  Kd: ~300 nM

## COC(=O)[C@H](CC1CC1)[C@@H]1N=C(c2ccc(Cl)cc2)c2cc(OC)ccc2-n2c(C)nnc21 (racemic) [Compound 13, (+−)-methyl (R)-2-((S)-6-(4-chlorophenyl)-8-methoxy-1-methyl-4H-benzo[f][1,2,4]triazolo[4,3-a][1,4]diazepin-4-yl)-3-cyclopropylpropanoate]
Brd2(1) [1]
  ΔTm Brd2(1): 0.5 ± 0.3 K
Brd2(2) [2]
  ΔTm Brd2(2): 3.7 ± 0.6 K
Brd4(1)
  ΔTm Brd4(1): 1.2 ± 0.6 K
Brd4(2)
  ΔTm Brd4(2): 2.0 ± 1.0 K
brd4(1)L094A
  ΔTm Brd4(1)* (L094A): 5.6 ± 0.3 K
brd4(2)L387A
  ΔTm Brd4(2)* (L387A): 5.8 ± 0.1 K
Brd2(1) [6]
  Kd: 4310 ± 3050 nM
Brd2(1) [6]; ITC 30° C., 1% DMSO
  ΔH Brd2(1): -3.402 ± 0.4335 kcal/mol
Brd2(2) [4]; ITC 30° C., 1% DMSO
  ΔH Brd2(2): -2.089 ± 0.211 kcal/mol
  Kd: 3320 ± 1860 nM
Solubility observations
  Solubility: lower than that for compounds with smaller bumps
Brd2(1)*(Leu110-Ala) [7]
  ΔTm Brd2(1)*(Leu110-Ala): 3.7 ± 0.2 K
Brd2(2)*(Leu383-Ala) [8]
  ΔTm Brd2(2)*(Leu383-Ala): 5.3 ± 0.3 K
Brd2(1)*(Leu110-Ala) [9]
  Kd: 360 ± 68.2 nM
Brd2(1)*(Leu110-Ala) [9]; ITC 30° C., 1% DMSO
  ΔH Brd2(1)* (Leu110-Ala): −9662 ± 162.7 cal/mol
Brd2(2)*(Leu383-Ala) [10]
  ΔH Brd2(2)* (Leu383-Ala): -7.868 ± 0.3365 kcal/mol
Brd2(2)*(Leu383-Ala) [10]; Kd Brd2(2)* (Leu383-Ala)
  Kd: 667 ± 330 nM
